Laboratory results from the NIST ThermoML archive (doi:10.1021/je900596d).

Settings: 362.9 K, Liquid, Vibrating tube method

FC(F)=C(F)C(F)(F)F [hexafluoropropene]
Settings | mass density [kg/m3]
5080.8 kPa | 959.79
5112.9 kPa | 961.66
5146 kPa | 963.53
5179.5 kPa | 965.35
5212.8 kPa | 967.09
5246.7 kPa | 968.92
5279.6 kPa | 970.74
5314.8 kPa | 972.51
5347.4 kPa | 974.13
5381.2 kPa | 975.88
5415.7 kPa | 977.6
5518.8 kPa | 982.72
5553.4 kPa | 984.34
5588.2 kPa | 985.96
5623.1 kPa | 987.64
5657.5 kPa | 989.1
5693.5 kPa | 990.75
5727.5 kPa | 992.15
5764.4 kPa | 993.86
5798.2 kPa | 995.17
5832.3 kPa | 996.63
5864.9 kPa | 997.97
5898.1 kPa | 999.35
5930.9 kPa | 1000.69
5965 kPa | 1002.21
6035.1 kPa | 1005.02
6069.8 kPa | 1006.31
6105.1 kPa | 1007.76
6137.3 kPa | 1008.98
6172 kPa | 1010.25
6204.9 kPa | 1011.55
6239.5 kPa | 1012.84
6274 kPa | 1014.15
6308.5 kPa | 1015.34
6343.7 kPa | 1016.69
6377.6 kPa | 1017.96
6413.1 kPa | 1019.11
6447.2 kPa | 1020.3
6480.8 kPa | 1021.47
6516.3 kPa | 1022.68
6550 kPa | 1023.83
6584.4 kPa | 1025.06
6618.1 kPa | 1026.09
6653.8 kPa | 1027.34
6686.8 kPa | 1028.37
6720.5 kPa | 1029.53
6754.6 kPa | 1030.75
6789.1 kPa | 1031.78
6824.9 kPa | 1032.91
6860.3 kPa | 1034.08
6893.3 kPa | 1035.1
6959.4 kPa | 1037.09
6993.3 kPa | 1038.11
7029.7 kPa | 1039.21
7062.9 kPa | 1040.15
7097.9 kPa | 1041.26
7134 kPa | 1042.28
7168.5 kPa | 1043.39
7202.4 kPa | 1044.3
7237.6 kPa | 1045.38
7273.1 kPa | 1046.4
7307.6 kPa | 1047.38
7378 kPa | 1049.33
7411.6 kPa | 1050.3
7482.4 kPa | 1052.26
7514.7 kPa | 1053.12
7547 kPa | 1053.95
7581.8 kPa | 1054.97
7615.4 kPa | 1055.85
7651.7 kPa | 1056.85
7689.7 kPa | 1057.93
7725.6 kPa | 1058.74
7762.3 kPa | 1059.79
7796.7 kPa | 1060.54
7833.4 kPa | 1061.54
7869.9 kPa | 1062.44
7906.3 kPa | 1063.38
7940.8 kPa | 1064.3
7976.7 kPa | 1065.12
8010.3 kPa | 1065.98
8045.2 kPa | 1066.87
8081.6 kPa | 1067.62
8115 kPa | 1068.6
8149.9 kPa | 1069.37
8185.9 kPa | 1070.21
8223.3 kPa | 1071.09
8281.3 kPa | 1072.48
8320.9 kPa | 1073.52
8358.3 kPa | 1074.27
8396.8 kPa | 1075.12
8431.8 kPa | 1075.97
8468.6 kPa | 1076.79
8505.7 kPa | 1077.66
8541.8 kPa | 1078.5
8577.3 kPa | 1079.34
8611.7 kPa | 1080.05
8649.3 kPa | 1080.92
8689.4 kPa | 1081.74
8724.6 kPa | 1082.52
8800.2 kPa | 1084.14
8834.9 kPa | 1084.87
8868.8 kPa | 1085.56
8902.9 kPa | 1086.27
8937.5 kPa | 1087.05
8971.8 kPa | 1087.76
9005.2 kPa | 1088.42
9039.7 kPa | 1089.26
9073.1 kPa | 1089.94
9106.5 kPa | 1090.69
9140.8 kPa | 1091.37
9173.4 kPa | 1092.03
9205.8 kPa | 1092.74
9239.9 kPa | 1093.42
9274.7 kPa | 1094.03
9308.6 kPa | 1094.75
9341.7 kPa | 1095.45
9377.4 kPa | 1096.15
9410.8 kPa | 1096.73
9445.5 kPa | 1097.46
9479.4 kPa | 1098.06
9548.7 kPa | 1099.5
9582.4 kPa | 1100.15
9618.6 kPa | 1100.84
9652.6 kPa | 1101.51
9687.1 kPa | 1102.18
9721.9 kPa | 1102.81
9756.1 kPa | 1103.39
9789.2 kPa | 1104.04
9822.6 kPa | 1104.65
9858.4 kPa | 1105.3
9893.4 kPa | 1106.05
9929.5 kPa | 1106.67
9963.2 kPa | 1107.25
9996.5 kPa | 1107.93
